Values of other authors as cited in patent publication US20180311347A1, “POLYMORPHISMS IN CACHEXIA PREDICT CLINICAL OUTCOMES OF COLORECTAL CANCER PATIENTS RECEIVING IRINOTECAN AND BEVACIZUMAB” (University of Southern California, priority 2017, published 2018).

System: type I activin like receptor

- VEGF expression: decrease VEGF expression
- angiogenesis: inhibit angiogenesis
SMILES: NC(=O)c1ccc(-c2nc(-c3ccc4c(c3)OCO4)c(-c3ccccn3)[nH]2)cc1 [SB431542]
